Test results taken from publication PMC12091848, “Structural Insights Into Galectin‐3 Recognition of a Selenoglycomimetic” (Chemmedchem, 2025).

Target: T1, Galectin-3 (Gal-3) (Homo sapiens, UniProt P17931)
T1 construct: gene LGALS3
Experiment: biochemical

T1 sequence (P17931 114-250 limits assumed): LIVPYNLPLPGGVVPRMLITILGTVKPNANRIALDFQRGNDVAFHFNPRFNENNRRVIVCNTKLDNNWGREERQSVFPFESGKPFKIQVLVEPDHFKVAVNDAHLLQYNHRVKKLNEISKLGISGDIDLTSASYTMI

OC[C@H]1O[C@@H]([Se][C@@H]2O[C@H](CO)[C@H](O)[C@H](O)[C@H]2O)[C@H](O)[C@@H](O)[C@H]1O [SeDG, di(β‐D‐galactopyranosyl)selenide]
Kd: 149 ± 30 µM
